Source: PubChem BioAssay (NCI)
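Dose response: 5 concentrations. Exposure: 48 h. Format: 96-well plates. Endpoint: linear interpolation; highest concentration if not reached. At the TGI there is no net growth.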

Key:
Assay in all cases: NCI tumour cell line growth inhibition, 48 h
786-0 renal = test system: 786-0 renal
CCRF-CEM leukemia = test system: CCRF-CEM leukemia
HCT-15 colon = test system: HCT-15 colon
MCF7 breast = test system: MCF7 breast
NCI-H226 lung = test system: NCI-H226 lung
NCI-H460 lung = test system: NCI-H460 lung
RPMI-8226 leukemia = test system: RPMI-8226 leukemia
SF-295 CNS = test system: SF-295 CNS
SNB-75 CNS = test system: SNB-75 CNS
K-562 leukemia = test system: K-562 leukemia

Row | Compound | TGI (786-0 renal) [µM] | TGI (CCRF-CEM leukemia) [µM] | TGI (HCT-15 colon) [µM] | TGI (MCF7 breast) [µM] | TGI (NCI-H226 lung) [µM] | TGI (NCI-H460 lung) [µM] | TGI (RPMI-8226 leukemia) [µM] | TGI (SF-295 CNS) [µM] | TGI (SNB-75 CNS) [µM] | TGI (K-562 leukemia) [µM]
1 | S=C(Nc1ccc2c(c1)oc1ccccc12)c1cccnc1 | > 100 | > 100 | > 100 | > 100 | 96.1 | > 100 | > 100 | > 100 | 49.7 | –
2 | C=C1CN2CC(=C)CN(C1)CS(=O)(=O)N1CC(=C)CN(CC(=C)C1)S(=O)(=O)N1CC(=C)CN(CC(=C)C1)S(=O)(=O)C2 | 58.9 | – | > 100 | > 100 | 71.5 | > 100 | > 100 | > 100 | – | > 100
3 | CC(C)NC(=O)OCCN=c1c2ccccc2ccc2ccccc12 | > 100 | 62.5 | > 100 | > 100 | > 100 | > 100 | – | > 100 | > 100 | > 100
4 | CN(C)c1ccc(C2SCC(=O)N2c2ccc(Oc3ccc(Cl)cc3)c(Cl)c2)cc1 (stereo not given) | 41.7 | 69.5 | 55.8 | 89.3 | > 100 | 49.4 | 58.1 | – | 50.9 | –
5 | Cc1cc(S(=O)(=O)Nc2nc3cc(-c4ccc(Cl)cc4)sc3c(=O)n2N)c(S)cc1Cl | > 100 | 59 | > 100 | > 100 | – | > 100 | > 100 | > 100 | > 100 | > 100
6 | CCOC(=O)c1ccc(C)c(N=NN(C)C)c1 | > 100 | > 100 | > 100 | – | > 100 | > 100 | > 100 | > 100 | > 100 | > 100
7 | Cc1cc(NCc2ccccc2)c2ccccc2[n+]1CCCCCCCCCC[n+]1c(C)cc(NCc2ccccc2)c2ccccc21 | 2.44 | – | 5.88 | 1.91 | – | – | 1.44 | 2.49 | 1.94 | –
8 | Cc1ccc(S(=O)(=O)NC(=O)N[C@@H](Cc2cnc[nH]2)C(=O)O)cc1 | > 100 | > 100 | > 100 | > 100 | – | > 100 | > 100 | > 100 | > 100 | > 100
9 | Nc1ccn(C2OC(CO)C(O)C2O)c(=O)c1 (stereo not given) | – | > 625 | > 625 | > 625 | > 625 | > 625 | 524 | > 625 | > 625 | –
10 | CC1=NNC(=O)C1C(CC(=O)c1c[nH]c2ccccc12)C(=O)O (stereo not given) | > 100 | > 100 | > 100 | – | > 100 | > 100 | > 100 | > 100 | > 100 | > 100
11 | Cc1ccc(S(=O)(=O)C(C#N)c2nc3ccccc3nc2-n2ccnc2)cc1 (stereo not given) | > 100 | > 100 | > 100 | – | > 100 | > 100 | > 100 | > 100 | > 100 | > 100
12 | CN1COCc2c1ccc1cc3ccc4c(c3nc21)COCN4S(C)(=O)=O | > 100 | > 100 | > 100 | > 100 | > 100 | > 100 | – | > 100 | 67.5 | > 100
13 | CC(C)CC(O)P(=O)(O)O (stereo not given) | > 100 | – | – | > 100 | > 100 | > 100 | > 100 | > 100 | > 100 | > 100
14 | CCNC(=O)Nc1cccc(NC(=O)NCC)n1 | > 100 | > 100 | – | > 100 | > 100 | > 100 | – | > 100 | > 100 | > 100
15 | COc1ccc2c(cnc3c4cc(OC)c(OC)cc4ccc23)c1 | > 100 | > 100 | > 100 | > 100 | > 100 | > 100 | – | > 100 | – | > 100
16 | Cn1c2ccccc2c(=O)c2cccc(C(=O)NC(CCCN=C(N)N)C(=O)O)c21 (stereo not given) | > 100 | – | > 100 | > 100 | > 100 | > 100 | > 100 | > 100 | > 100 | > 100
17 | Cc1ccc(O)c(-c2cscn2)c1 | > 100 | > 100 | > 100 | > 100 | – | > 100 | > 100 | > 100 | – | > 100
18 | CCOc1ccc(/C=C2/C(=O)N=C(NC(C)=O)N2C)cc1 | > 100 | – | > 100 | > 100 | > 100 | > 100 | – | > 100 | > 100 | –
